One data set addresses T1, His-CRBN/DDB1 (Homo sapiens, UniProt Q96SW2).
T1 construct: made in house; host or cells: Sf9 insect cells (baculovirus)
The data set is described as follows: TR-FRET CRBN competitive binding assay (BODIPY FL thalidomide probe). The conditions noted are these: FIG. 9D. As for the experimental part:
The pFastBacDual-6xHis-CRBN/DDB1 plasmid was cloned by GenScript and used for baculoviral expression of His-CRBN and untagged DDB1. Protein was expressed and purified essentially as described previously. The bacmid was produced in MAX Efficiency DH10Bac Competent Cells (Thermo Fisher Scientific) according to the manufacturer's instructions. To generate the P1 virus, 1×10^6 Sf9 cells were plated in each well of a six-well plate in 2 mL Sf-900 III SFM and transfected with 7 μg bacmid using Cellfectin II reagent (Thermo Fisher Scientific). After 6 h at 27° C., the media was replaced with 2 mL fresh Sf-900 III SFM. After three days, the supernatant was collected, centrifuged at 500×g for 5 min to remove cells and debris, transferred to new tubes, and stored at 4° C. To generate P2 virus, 2 mL P1 virus was added to 1×10^8 Sf9 cells in 50 mL Sf-900 III SFM and shaken at 27° C. for three days. The supernatant was collected and clarified as above. For protein expression, 5 mL P2 virus was added to each liter of Sf cells (2×10^6 cells/mL) and shaken at 27° C. for three days. Cells containing expressed protein were pelleted by centrifugation at 500×g for 5 min, the supernatant was removed, and pellets were stored at −80° C. until processing. […] The suspension was incubated on ice for 1 h, gently sonicated, and centrifuged for 1 h at 40,000×g at 4° C. The supernatant was applied to Ni-NTA Superflow resin (QIAGEN) equilibrated with lysis buffer. The resin was washed with 10 column volumes (CV) of lysis buffer, and proteins were eluted with 10 CV lysis buffer containing 500 mM imidazole. The solution was diluted to 200 mM NaCl using lysis buffer without NaCl and applied to a HiTrap ANX FF (High Sub) column (Cytiva) equilibrated with ANX binding buffer [50 mM Tris (pH 7.5), 200 mM NaCl, 3 mM TCEP]. The column was washed with 10 CV ANX binding buffer followed by 10 CV ANX wash buffer [50 mM Bis-Tris (pH 6.0), 200 mM NaCl, 3 mM TCEP]. A 20 CV linear gradient was then immediately applied from ANX binding buffer to ANX binding buffer containing 1 M NaCl using an AKTA avant chromatography system (Cytiva). The purest fractions were applied to a HiLoad 26/600 Superdex 200 pg size exclusion column equilibrated with 10 mM HEPES (pH 7.0), 240 mM NaCl, and 3 mM TCEP. Pure protein was concentrated to 20-30 mg/mL in Pierce PES Protein Concentrators (Thermo Fisher Scientific), flash frozen in liquid nitrogen, and stored at −80° C.
The assay buffer composition was 50 mM Tris (pH 7.5), 0.1% Triton X-100, 0.01% bovine serum albumin, and 1 mM DTT. […] Lastly, 5 μL/well of 8 nM Tb-anti-His and 8 nM His-CRBN/DDB1 in assay buffer was added. […] The plates were then protected from light exposure and incubated for 60 minutes at room temperature (RT). After incubation, the TR-FRET signal from each well was collected with a PHERAstar FS Microplate Reader (BMG Labtech). The percent inhibition for each well was calculated using equation 2: […]

The target in another data set is T2, GSPT1 (Homo sapiens, UniProt P15170+Q96SW2).
T2 construct: endogenous in cells
Description: Western blot of GSPT1 protein in SNU—C4 3xFLAG-PXR KI cells. The settings on record: for GSPT1 Loss at 10 μM (% ± SD): 10 μM compound, calculated from western blots FIG. 9A; for GSPT1 degradation (in words): western blot, SNU—C4 3xFLAG-PXR KI cells. In kind it is cell-based. As for the experimental part: (§1) The following day, DMSO or compounds were added to result in 0.5% DMSO and the indicated compound concentrations, and cells were incubated for the indicated time points. Cells were lysed and subjected to western blotting as above using antibodies against FLAG (Sigma-Aldrich, cat. #F3165, 1:2,000 dilution), GSPT1 (Abcam, cat. #ab126090, 1:4,000 dilution), and R-Actin (Cell Signaling Technology, cat. #4967, 1:2,000 dilution).

For data set [1], the target named is T3, PXR (Homo sapiens, UniProt O75469).
T3 sequence (O75469 1-434): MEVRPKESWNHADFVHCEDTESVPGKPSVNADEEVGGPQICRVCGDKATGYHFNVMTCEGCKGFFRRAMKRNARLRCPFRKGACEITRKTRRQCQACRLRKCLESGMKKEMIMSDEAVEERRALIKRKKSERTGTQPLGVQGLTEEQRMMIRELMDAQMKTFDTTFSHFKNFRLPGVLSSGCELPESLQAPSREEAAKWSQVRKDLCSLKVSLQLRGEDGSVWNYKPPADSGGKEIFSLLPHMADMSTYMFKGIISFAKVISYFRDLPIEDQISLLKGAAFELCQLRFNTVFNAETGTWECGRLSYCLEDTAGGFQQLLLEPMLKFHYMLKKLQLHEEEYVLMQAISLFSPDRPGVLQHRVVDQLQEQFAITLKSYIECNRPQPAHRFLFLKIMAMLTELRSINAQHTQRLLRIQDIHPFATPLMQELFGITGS
Description: cell-based hPXR antagonistic assay. The settings on record: for inhibition at 10 µM: read-out: Antagonist (% inhibition at 10 μM); for IC50: read-out: Antagonist (IC50/μM).

Data set [2] has as its target T3, PXR. The data set is described as follows: cell-based hPXR inverse agonistic assay. The conditions noted are these: for inhibition at 10 µM: read-out: Inverse agonist (% inhibition at 10 μM); for IC50: read-out: Inverse agonist (IC50/μM).
In data set [3] the target is T3, PXR. Description: cell-based hPXR agonistic assay. The conditions noted are these: for Agonist (% activation at 10 μM): rifampicin at 10 μM as 100% activation, DMSO (0.3%) as 0%; for EC50: NA = no value within concentration range tested (highest 30 μM), read-out: Agonist (EC50/μM).
Data set [4] has as its target T3, PXR. The data set is described as follows: hPXR binding assay. The settings on record: for inhibition at 10 µM: read-out: Binding (% inhibition at 10 μM).
Data set [5] has as its target T3, PXR. Description: Western blot of endogenous 3xFLAG-PXR protein in SNU—C4 3xFLAG-PXR KI cells. In kind it is cell-based. Also on record: To assess SJPYT-195 activity against endogenous PXR, CRISPR-Cas9 was used; endogenous in cells. The settings on record: western blot, SNU—C4 3xFLAG-PXR KI cells. The method, then:
as §1

The structures appear in SMILES notation. “Also recorded” adds a separate entry of the source.

On to `COc1ccc(OC)c(-n2nnc(C(=O)Nc3cc(OC(=O)CNc4cccc5c4C(=O)N(C4CCC(=O)NC4=O)C5=O)cc(C(C)(C)C)c3)c2C)c1` (stereo not drawn) [Compound M7, 3-(tert-butyl)-5-(1-(2,5-dimethoxyphenyl)-5-methyl-1H-1,2,3-triazole-4-carboxamido)phenyl (2-(2,6-dioxopiperidin-3-yl)-1,3-dioxoisoindolin-4-yl)glycinate], for which, on His-CRBN/DDB1, the “CRBN binding (in words)” value is listed as “retained strong binding of CRBN”. Besides, at GSPT1, the “GSPT1 Loss at 10 μM (% ± SD)” value is given as 46 ± 1.5% and the “GSPT1 degradation (in words)” value was “only weakly degraded GSPT1”. At PXR [1], the inhibition at 10 µM worked out at 71% and the IC50 was 1.38 ± 0.47 µM. Moreover, at PXR [2], the inhibition at 10 µM stood at 103% and the IC50 was 0.2 ± 0.038 µM.
Regarding `COc1ccc(OC)c(-n2nnc(C(=O)Nc3cc(OCCNc4cccc5c4C(=O)N(C4CCC(=O)NC4=O)C5=O)cc(C(C)(C)C)c3)c2C)c1` (stereo not drawn) [Compound M10, N-(3-(tert-butyl)-5-(2-((2-(2,6-dioxopiperidin-3-yl)-1,3-dioxoisoindolin-4-yl)amino)ethoxy)phenyl)-1-(2,5-dimethoxyphenyl)-5-methyl-1H-1,2,3-triazole-4-carboxamide], the “CRBN binding (in words)” value on His-CRBN/DDB1 is recorded as “retained strong binding of CRBN”. At GSPT1, the “GSPT1 Loss at 10 μM (% ± SD)” value is 72 ± 2.3% and the “GSPT1 degradation (in words)” value is on record as “strong GSPT1 degradation”. Also, at PXR [1], the inhibition at 10 µM is 102% and the IC50 was 0.23 ± 0.023 µM. In addition, at PXR [2], the inhibition at 10 µM was determined as 128% and the IC50 stood at 0.042 ± 0.0085 µM.
Turning to `COc1ccc(OC)c(-n2nnc(C(=O)Nc3cc(OCCCCCCCCN4C(=O)CCC(N5C(=O)c6cccc(N)c6C5=O)C4=O)cc(C(C)(C)C)c3)c2C)c1` (stereo not drawn) [Compound N5, N-(3-((8-(3-(4-amino-1,3-dioxoisoindolin-2-yl)-2,6-dioxopiperidin-1-yl)octyl)oxy)-5-(tert-butyl)phenyl)-1-(2,5-dimethoxyphenyl)-5-methyl-1H-1,2,3-triazole-4-carboxamide], the “Agonist (% activation at 10 μM)” value at PXR [3] is “(81 ± 5)%”.
On to `CO[C@H]1/C=C/O[C@@]2(C)Oc3c(C)c(O)c4c(O)c(c(/C=N/N5CCN(C)CC5)c(O)c4c3C2=O)NC(=O)/C(C)=C\C=C\[C@H](C)[C@H](O)[C@@H](C)[C@@H](O)[C@@H](C)[C@H](OC(C)=O)[C@@H]1C` [Rifampicin, reference compound], for which, on PXR [3], the “Agonist (% activation at 10 μM)” value is on record as “(100 ± 2)%”.
Take `COc1ccc(OC)c(-n2nnc(C(=O)Nc3cc(C(C)(C)C)ccc3OCCCCN3C(=O)CCC(N4Cc5c(N)cccc5C4=O)C3=O)c2C)c1` (stereo not drawn) [Compound N1, N-(2-(4-(3-(4-amino-1-oxoisoindolin-2-yl)-2,6-dioxopiperidin-1-yl)butoxy)-5-(tert-butyl)phenyl)-1-(2,5-dimethoxyphenyl)-5-methyl-1H-1,2,3-triazole-4-carboxamide]: on PXR [3], the “Agonist (% activation at 10 μM)” value is “(55 ± 5)%” and the EC50 turned out to be 0.75 ± 0.11 µM. On PXR [4], the IC50 was 1.27 ± 0.48 µM and the inhibition at 10 µM came to 34%.
As for `COc1ccc(OC)c(-n2nnc(C(=O)Nc3cc(NCCNc4cccc5c4C(=O)N(C4CCC(=O)NC4=O)C5=O)cc(C(C)(C)C)c3)c2C)c1` (stereo not drawn) [Compound M11, N-(3-(tert-butyl)-5-((2-((2-(2,6-dioxopiperidin-3-yl)-1,3-dioxoisoindolin-4-yl)amino)ethyl)amino)phenyl)-1-(2,5-dimethoxyphenyl)-5-methyl-1H-1,2,3-triazole-4-carboxamide], the “CRBN binding (in words)” value on His-CRBN/DDB1 is on record as “retained strong binding of CRBN”. Besides, at GSPT1, the “GSPT1 Loss at 10 μM (% ± SD)” value is reported as 63 ± 13% and the “GSPT1 degradation (in words)” value is “strong GSPT1 degradation”. On PXR [1], the inhibition at 10 µM came to 109% and the IC50 is 0.026 ± 0.0008 µM. On PXR [4], the IC50 is 0.67 ± 0.014 µM and the inhibition at 10 µM turned out to be 61%. Moreover, on PXR [2], the inhibition at 10 µM worked out at 135% and the IC50 was 0.0079 µM.
Turning to `COc1ccc(OC)c(-n2nnc(C(=O)Nc3cc(C(C)(C)C)ccc3OCCCCOc3cccc4c3C(=O)N(C3CCC(=O)NC3=O)C4=O)c2C)c1` (stereo not drawn) [Compound M12, N-(5-(tert-butyl)-2-(4-((2-(2,6-dioxopiperidin-3-yl)-1,3-dioxoisoindolin-4-yl)oxy)butoxy)phenyl)-1-(2,5-dimethoxyphenyl)-5-methyl-1H-1,2,3-triazole-4-carboxamide], at PXR [3], the “Agonist (% activation at 10 μM)” value is reported as “(33 ± 1)%” and the EC50 stood at 0.27 ± 0.078 µM. At PXR [1], the inhibition at 10 µM was found to be 28% and the IC50 worked out at 0.67 ± 0.26 µM. Moreover, on PXR [4], the IC50 was 0.032 ± 0.002 µM and the inhibition at 10 µM came out at 56%.
For the compound `CC(=O)Nc1cc(Nc2cccc3c2C(=O)N(C2CCC(=O)NC2=O)C3=O)cc(C(C)(C)C)c1` (stereo not drawn) [Compound A3, N-(3-(tert-butyl)-5-((2-(2,6-dioxopiperidin-3-yl)-1,3-dioxoisoindolin-4-yl)amino)phenyl)acetamide], the “CRBN binding (in words)” value at His-CRBN/DDB1 (listed as SJPYT-231) is reported as “strongest CRBN binding of all tested compounds; also recorded: maintained strong CRBN binding; also recorded: higher affinity CRBN binder than thalidomide or pomalidomide”. The “GSPT1 Loss at 10 μM (% ± SD)” value on GSPT1 is given as 15 ± 21%. For the same compound, the “GSPT1 degradation (in words)” value on GSPT1 (listed as SJPYT-231) is reported as “did not affect either PXR or GSPT1 levels; also recorded: lost the degradation activity of GSPT1”. Also, the “PXR protein level (in words)” value at PXR [5] is “did not affect either PXR or GSPT1 levels”.

Values taken from patent publication US20260116867A1, “PROTEOLYSIS TARGETING CHIMERAS FOR HUMAN PREGNANE X RECEPTOR AND FOR DEGRADATION OF GSPT1” (ST. JUDE CHILDREN'S RESEARCH HOSPITAL, priority 2022, published 2026).
